# Source: patent US20240066043A1, “PHARMACEUTICAL CO[…] IMPROVED DISSOLUTION AND RAPID ONSET BY TARGETED STOMACH AND MUCOSAL RELEASE” (Xpira Pharmaceuticals Inc., priority 2022, published 2024)
# Where two headings read alike, the source gives them in different places.
# Experiments:
# [1] = cited from earlier work
# [2] = cited from earlier work; remark: listed apart in the source
# [3] = Particle size analysis from SEM micrographs (circle equivalent diameter); format: physicochemical; conditions: SEM micrograph FIG. 4B, unformulated psilocybin
# [4] = cited from earlier work; remark: listed apart in the source
# [5] = cited from earlier work; remark: listed apart in the source
# [6] = biological target: T1, neocortical serotonin 5-HT2A receptors (Homo sapiens, UniProt P28223); conditions: 25 mg oral dose (Madsen et al., 2019); cited from earlier work
# T1 construct: host or cells: neocortex in vivo
# [7] = Flowability measurements (bulk density, tapped density, Hausner ratio, compressibility index)
# [8] = oral 0.224 mg/kg psilocybin (10 to 20 mg) (Hasler et al., 1997)
# [9] = oral psilocybin (Brown et al., 2017)
# T1 sequence (P28223 whole entry): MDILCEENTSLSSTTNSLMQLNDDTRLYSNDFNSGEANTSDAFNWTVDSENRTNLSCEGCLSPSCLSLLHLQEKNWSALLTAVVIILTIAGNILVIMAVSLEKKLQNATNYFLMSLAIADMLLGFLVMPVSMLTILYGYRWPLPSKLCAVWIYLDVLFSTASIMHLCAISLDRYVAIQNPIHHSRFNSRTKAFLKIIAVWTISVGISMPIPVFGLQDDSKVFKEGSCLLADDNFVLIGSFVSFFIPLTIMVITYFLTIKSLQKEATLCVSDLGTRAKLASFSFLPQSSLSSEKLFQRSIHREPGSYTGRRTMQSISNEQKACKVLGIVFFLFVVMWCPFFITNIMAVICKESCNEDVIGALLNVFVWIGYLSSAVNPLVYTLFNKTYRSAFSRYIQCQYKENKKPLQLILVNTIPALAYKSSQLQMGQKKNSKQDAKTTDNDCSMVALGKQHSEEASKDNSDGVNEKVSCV
structure (smiles),measurement,setting,value
CN(C)CCc1c[nH]c2cccc(O)c12 [psilocin],time until psilocin detectable in plasma,[1]; after administration of the parent compound psilocybin,≤ 20 min
same,time until psilocin appears in plasma,[1]; after oral administration,≤ 15 min
same,psilocin half-life,"[1]; following oral administration of psilocybin (Brown et al., 2017)",approximately 3±1.1 hours
same,half-life of psilocin in blood,[1]; in vivo,2 to 3 h
same,average blood concentration of the active metabolite psilocin,[1]; [8],8.2 ± 2.8 ng/mL
same,time of average blood concentration of psilocin,[1]; [8],105 ± 37 min
same,time of peak psilocin levels,[1]; [9],approximately 80 minutes
same,time psilocin is detectable after administration,[1]; [9],up to 24 hours
same,share of overall clearance of psilocin through renal excretion,"[1]; urine over 24 hours after a single dose (Hasler et al., 2002)",less than 4%
same,time to maximum plasma levels,"[2]; oral, rats (Chen et al., 2011)",approximately 90 minutes
same,total volume of psilocin absorbed from the digestive tract,"[2]; psilocybin administered orally to rats (Kalberer et al., 1962)",approximately 50%
"CN(C)CCc1c[nH]c2cccc(OP(=O)(O)O)c12 [Psilocybin, 3[2-(dimethylamino)ethyl]-1H-indol-4-yl] dihydrogen phosphate]",crystal size,[3],≤ 30 μm
same,solubility,[4]; boiling methanol,120 parts
same,solubility,[4]; boiling water,20 parts
same,stability,[4]; dark storage at controlled room temperature,stable over extended periods
same,peak of psychoactive effects,[5]; after a dose,about two hours
same,onset of noticeable psychoactive effects,[5]; after an oral dose,within one hour
same,loss of psychoactive effects,[5]; after the dose,around six hours
same,occupancy of neocortical serotonin 5-HT2A receptors,[6],near-maximal occupancy
same,"pharmacokinetics of psilocybin (as psilocin), dose linearity","[1]; dose range 0.3-0.6 mg/kg (Brown et al., 2017; Hasler et al., 2002)",linear
same,estimated dose-normalized bioavailability of psilocybin,"[1]; oral 0.224 mg/kg psilocybin, N=3 (Hasler et al., 1997)",52.7±20%
same,bioavailability,[1]; oral psilocybin,~50%
same,Bulk density,[7]; USP41-NF36 616,0.19 g/mL
same,Tapped density,[7]; USP41-NF36 616,0.45 g/mL
same,Compressibility index,[7]; USP41-NF36 1174,58%
same,Hausner ratio,"[7]; tap density divided by bulk density, USP41-NF36 1174",2.36
